From patent US20220380375A1, “SUBSTITUTED AROMATIC FUSED RING DERIVATIVE AND COMPOSITION COMPRISING SAME, AND USE THEREOF” (Shenzhen TargetRx, Inc., priority 2019, published 2022)

Legend:
Format in all cases: cell-based
[1] = target: T1, Ba/F3 FLT3-ITD^D835Y cells (Homo sapiens, UniProt P36888, D835Y, cells depend on it, form not given); assay: Cytotoxicity assay (CellTiter-Glo), Ba/F3 FLT3-ITD D835Y; details: CellTiter-Glo, 72 hrs; read-out: Ba/F3 FLT3-ITD^D835Y IC50
T1 construct: Ba/F3 FLT3-ITD^D835Y IC50 (nM); other: CellTiter-Glo, 72 hrs
T1 sequence (P36888 1-993 D835Y): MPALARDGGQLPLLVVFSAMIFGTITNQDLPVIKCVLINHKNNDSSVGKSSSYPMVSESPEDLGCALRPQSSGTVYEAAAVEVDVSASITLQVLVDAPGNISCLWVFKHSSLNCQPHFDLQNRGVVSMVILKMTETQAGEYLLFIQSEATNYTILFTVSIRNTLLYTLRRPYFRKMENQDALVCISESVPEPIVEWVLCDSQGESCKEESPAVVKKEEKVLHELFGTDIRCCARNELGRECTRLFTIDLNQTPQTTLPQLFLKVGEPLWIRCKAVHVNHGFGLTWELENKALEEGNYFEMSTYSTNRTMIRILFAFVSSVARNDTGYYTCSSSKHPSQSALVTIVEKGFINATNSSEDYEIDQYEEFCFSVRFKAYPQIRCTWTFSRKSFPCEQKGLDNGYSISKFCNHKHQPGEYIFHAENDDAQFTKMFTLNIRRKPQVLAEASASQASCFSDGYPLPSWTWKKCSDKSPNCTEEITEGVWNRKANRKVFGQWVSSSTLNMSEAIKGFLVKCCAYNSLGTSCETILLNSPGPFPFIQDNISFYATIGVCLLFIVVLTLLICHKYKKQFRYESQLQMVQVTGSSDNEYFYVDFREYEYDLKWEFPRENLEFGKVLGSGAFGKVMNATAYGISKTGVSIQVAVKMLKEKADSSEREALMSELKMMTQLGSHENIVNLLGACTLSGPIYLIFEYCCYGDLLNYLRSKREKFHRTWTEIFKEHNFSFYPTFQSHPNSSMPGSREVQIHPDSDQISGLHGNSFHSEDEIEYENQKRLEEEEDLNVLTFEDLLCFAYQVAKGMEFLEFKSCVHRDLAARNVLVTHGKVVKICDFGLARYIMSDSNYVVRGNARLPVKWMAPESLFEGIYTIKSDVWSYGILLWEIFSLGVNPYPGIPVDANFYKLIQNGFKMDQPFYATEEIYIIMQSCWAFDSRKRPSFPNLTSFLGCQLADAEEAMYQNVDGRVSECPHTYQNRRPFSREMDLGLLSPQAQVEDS
Protocol: (§1) Inhibitory effects of example compounds on the activity of Ba/F3 parental generation, Ba/F3 KIF5B-RET, Ba/F3 KIF5B-RET^V804M, Ba/F3 KIF5B-RET^V804L, Ba/F3 KIF5B-RET^G810R, Ba/F3 FLT3-ITD, Ba/F3 FLT3-ITD^D835Y, Ba/F3 FLT3-ITD^F691L cells were determined.
(§2) Materials and reagents: fetal bovine serum FBS (GIBCO, Cat #10099141), CellTiter-Glo® Luminescent Cell Viability Assay kit (Promega, Cat #G7572), 96-well black-wall clear flat-bottom plate (Corning®, Cat #3603).
(§3) 1. Cells in the logarithmic growth phase were harvested and counted with a […]. Cell viability was detected by a trypan blue exclusion method, ensuring that cell viability was 90% or more; 2. Cell concentration was adjusted to about 3000 cells/well; 90 μl of cell suspension was added to each well of the 96-well plate; 3. The cells in the 96-well plate were incubated overnight under the condition of 37° C., 5% CO2, and 95% humidity.
(§4) 1. A series of compound solutions were formulated by 3.16-fold serial dilution starting from a concentration of 10 μM, resulting in 9 concentrations. 10 μL of the compound solutions were added in each well of the 96-well plate seeded with cells in triplicate for each compound concentration; 2. The cells in the 96-well plate added with compounds were further incubated under the condition of 37° C., 5% CO2, and 95% humidity for 72 hrs, and then CTG analysis was carried out.
(§5) 1. CTG reagent was thawed, and the cell plate was equilibrated at room temperature for 30 minutes; 2. An equal volume […] of CTG solution was added to each well; 3. The cell plate was shaken on an orbital shaker for 5 minutes to lyse the cells; 4. The cell plate was placed at RT for 20 minutes to stabilize the luminescence signal; 5. Luminescence value was read.
(§6) Data were Analyzed by GraphPad Prism 5.0 Software, and Fitted by Nonlinear S-Curve Regression to obtain a dose-response curve, from which IC50 values were calculated.
(§7) Cell survival rate (%)=(luminescence value of drug to be tested−luminescence value of culture medium control)/(luminescence value of cell control−luminescence value of culture medium control)×100%.

[2] = system: Ba/F3 FLT3-ITD^D835Y cells; assay: as above; details: ratio of Ba/F3 parental IC50 to Ba/F3 FLT3-ITD^D835Y IC50
Protocol: as §1, §2, §3, §4, §5, §6, §7

[3] = target: T2, Ba/F3 KIF5B-RET^V804L cells (Homo sapiens, UniProt P07949, V804L, cells depend on it); assay: Cytotoxicity assay (CellTiter-Glo), Ba/F3 KIF5B-RET V804L; details: CellTiter-Glo, 72 hrs; read-out: Ba/F3 KIF5B-RET^V804L IC50
T2 construct: Ba/F3 KIF5B-RET^V804L IC50 (nM); other: CellTiter-Glo, 72 hrs; fused on or other part: P33176 (Kinesin-1 heavy chain)
T2 sequence (P07949 whole entry V804L, the tested form may be a part): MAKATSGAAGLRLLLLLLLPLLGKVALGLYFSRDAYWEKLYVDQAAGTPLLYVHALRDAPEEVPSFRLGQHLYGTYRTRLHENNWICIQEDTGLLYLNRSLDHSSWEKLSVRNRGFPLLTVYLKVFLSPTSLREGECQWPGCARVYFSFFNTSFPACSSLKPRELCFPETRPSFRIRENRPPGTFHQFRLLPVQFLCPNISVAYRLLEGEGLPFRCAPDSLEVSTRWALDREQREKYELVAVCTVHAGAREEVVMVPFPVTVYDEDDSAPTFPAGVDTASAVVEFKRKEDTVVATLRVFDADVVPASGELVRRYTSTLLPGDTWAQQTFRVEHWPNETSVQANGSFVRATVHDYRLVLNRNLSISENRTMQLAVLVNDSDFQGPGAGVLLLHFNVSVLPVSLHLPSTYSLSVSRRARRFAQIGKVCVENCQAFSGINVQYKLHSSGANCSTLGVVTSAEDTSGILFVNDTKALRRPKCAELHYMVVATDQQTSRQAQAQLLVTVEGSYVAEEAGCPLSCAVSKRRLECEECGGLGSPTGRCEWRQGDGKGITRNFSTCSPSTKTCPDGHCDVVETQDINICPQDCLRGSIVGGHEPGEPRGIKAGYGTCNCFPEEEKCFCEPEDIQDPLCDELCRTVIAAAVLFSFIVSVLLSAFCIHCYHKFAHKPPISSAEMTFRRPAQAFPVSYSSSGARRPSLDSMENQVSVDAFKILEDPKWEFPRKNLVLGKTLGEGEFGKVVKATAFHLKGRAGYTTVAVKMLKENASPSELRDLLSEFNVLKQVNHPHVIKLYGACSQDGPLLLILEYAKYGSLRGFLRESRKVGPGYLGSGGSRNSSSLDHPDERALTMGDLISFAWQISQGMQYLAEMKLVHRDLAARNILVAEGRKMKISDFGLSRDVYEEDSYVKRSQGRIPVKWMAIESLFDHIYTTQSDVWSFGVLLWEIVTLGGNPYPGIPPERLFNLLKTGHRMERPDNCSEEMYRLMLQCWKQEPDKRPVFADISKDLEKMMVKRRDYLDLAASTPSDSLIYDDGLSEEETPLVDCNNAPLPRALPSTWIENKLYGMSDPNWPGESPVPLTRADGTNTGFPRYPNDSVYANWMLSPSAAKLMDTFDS
Protocol: as §1, §2, §3, §4, §5, §6, §7

[4] = system: Ba/F3 KIF5B-RET^V804L cells; assay: as above; details: ratio of Ba/F3 parental IC50 to Ba/F3 KIF5B-RET^V804L IC50
Protocol: as §1, §2, §3, §4, §5, §6, §7

[5] = system: Ba/F3 FLT3-ITD^F691L cells; assay: Cytotoxicity assay (CellTiter-Glo), Ba/F3 FLT3-ITD F691L; details: ratio of Ba/F3 parental IC50 to Ba/F3 FLT3-ITD^F691L IC50
Protocol: as §1, §2, §3, §4, §5, §6, §7

| Structure (SMILES) | GI50 [1] [nM] | Ba/F3 FLT3-ITD^D835Y Selectivity on parental generation [2] | GI50 [3] [nM] | Ba/F3 KIF5B-RET^V804L Selectivity on parental generation [4] | Ba/F3 FLT3-ITD^F691L Selectivity on parental generation [5] |
| --- | --- | --- | --- | --- | --- |
| CC(C)n1nc(-c2ccc(CC(=O)Nc3cc(C(C)(C)C(F)(F)F)on3)cn2)c2c(N)ncnc21 [Compound T-7, 2-(6-(4-amino-1-isopropyl-1H-pyrazolo[3,4-d]pyrimidin-3-yl)pyridin-3-yl)-N-(5-(1,1,1-trifluoro-2-methylprop-2-yl)isoxazol-3-yl)acetamide] | 5.57 | 32.63 | 55.7 | 5.9 | 101.9 |
| CC(C)n1nc(-c2ccc(CC(=O)Nc3cc(C(C)(C)C(F)(F)F)no3)cn2)c2c(N)ncnc21 [Compound T-9, 2-(6-(4-amino-1-isopropyl-1H-pyrazolo[3,4-d]pyrimidin-3-yl)pyridin-3-yl)-N-(3-(1,1,1-trifluoro-2-methylprop-2-yl)isoxazol-5-yl)acetamide] | 46.9 | 87.8 | 49.3 | 83.5 | 146.5 |
| CC(C)n1nc(-c2ccc(NC(=O)Nc3cc(C(F)(F)F)ccc3F)cc2)c2c(N)ncnc21 [AD80, reference compound] | 30.1 | 21.82 | 9.05 | 89.7 | 68.8 |
| CC(C)n1nc(-c2ccc(NC(=O)Nc3cc(C(C)(C)C(F)(F)F)on3)cc2)c2c(N)ncnc21 [Compound T-2, 1-(4-(4-amino-1-isopropyl-1H-pyrazolo[3,4-d]pyrimidin-3-yl)phenyl)-3-(5-(1,1,1-trifluoro-2-methylprop-2-yl)isoxazol-3-yl)urea] | 6.05 | 35.48 | 5.39 | 62.68 | 115.3 |
| CC(C)c1nc(-c2ccc(CC(=O)Nc3cc(C(C)(C)C(F)(F)F)on3)cc2)c2c(N)ncnn12 [Compound T-10, 2-(4-(4-amino-7-isopropylimidazo[5,1-f][1,2,4]triazin-5-yl)phenyl)-N-(5-(1,1,1-trifluoro-2-methylprop-2-yl)isoxazol-3-yl)acetamide] | 46.4 | 48.3 | 18.4 | 121.8 | 57.3 |
| CC(C)n1nc(-c2ccc(CC(=O)Nc3cc(C(C)(C)C(F)(F)F)on3)cc2)c2c(N)ncnc21 [Compound T-1, 2-(4-(4-amino-1-isopropyl-1H-pyrazolo[3,4-d]pyrimidin-3-yl)phenyl)-N-(5-(1,1,1-trifluoro-2-methylprop-2-yl)isoxazol-3-yl)acetamide] | 14.4 | 137.97 | 3.71 | 436.8 | 210.4 |
| CC(C)c1cc(-c2ccc(CC(=O)Nc3cc(C(C)(C)C(F)(F)F)on3)cc2)c2c(N)ncnn12 [Compound T-5, 2-(4-(4-amino-7-isopropylpyrrolo[2,1-f][1,2,4]triazin-5-yl)phenyl)-N-(5-(1,1,1-trifluoro-2-methylprop-2-yl)isoxazol-3-yl)acetamide] | 35.8 | 133.6 | 19.7 | 242.8 | 419.6 |
| CC(C)c1nc(-c2ccc(CC(=O)Nc3cc(C(C)(C)C(F)(F)F)on3)cc2)c2c(N)nccn12 [Compound T-4, 2-(4-(8-amino-3-isopropylimidazo[1,5-a]pyrazin-1-yl)phenyl)-N-(5-(1,1,1-trifluoro-2-methylprop-2-yl)isoxazol-3-yl)acetamide] | 23.1 | 32.03 | 31.6 | 22.2 | 42.2 |
